In paper PMC7926352, “Synthesis, Characterization and In Vitro Evaluation of Novel 5-Ene-thiazolo[3,2-b][1,2,4]triazole-6(5H)-ones as Possible Anticancer Agents” (Molecules, 2021):
Like-named read-outs stand apart in the source and are kept apart here.

Key:
[1] = test system: human embryonic kidney (HEK 293) cell lines; assay: MTT cytotoxicity assay; type: cell-based; conditions: Homo sapiens, HEK293; HEK 293, MTT, 24 h
Experimental: Compounds 2h and 2i were also evaluated in vitro for their cytotoxic potential against human embryonic kidney (HEK 293) cell lines using the MTT assay.
The cytotoxicity of compounds 2h and 2i was analyzed in vitro by the MTT colorimetric assay on human embryonic kidney cell lines (HEK 293). HEK cell lines were cultured in DMEM supplemented with 10% fetal calf serum and 1% antibiotic-antimycotic mixture culture plates at 37 °C and 5% CO2-humidified incubator. Cells were seeded at a density of 1 × 10^5 cells/well in 96-well plate for 24 h; then, cells were washed and incubated in fresh medium. Compounds 2h and 2i were added at a concentration of 1, 5, 10, 25, and 50 μg/mL to triplicate wells and kept for 24 h, after which cells were washed three times with PBS. After washing, 20 μL of MTT solution (5 mg/mL stock solution) were added to each well, and cells were then incubated for an additional 4 h. The unreacted MTT dye and medium were aspirated off, and 100 μL of DMSO was added to each well to ensure solubilization of formazan crystals. The contents of the plates were mixed for 15 min to achieve complete solubilization of the formazan crystals, and the measurement of optical density was carried out at 570 nm with a micro plate spectrophotometer (MRX Microplate Reader, Dynatech Laboratories Inc., Chantilly, VA, USA) at 570 nm.

[2] = test system: A549/ATCC; type: cell-based; conditions: NSCLC
[3] = test system: NCI-H226; type: cell-based; conditions: NCI-H226, NSCLC
[4] = test system: SNB-19; type: cell-based; conditions: SNB-19, CNS Cancer
[5] = test system: HL-60 (TB)
[6] = test system: MOLT-4
[7] = test system: RPMI-8226
[8] = test system: SR
[9] = test system: HOP-92
[10] = test system: NCI-H522
[11] = test system: U251
[12] = test system: MALME-3M
[13] = test system: SK-MEL-2
[14] = test system: SK-MEL-28
[15] = test system: UACC-257
[16] = test system: UACC-62
[17] = test system: OVCAR-3
[18] = test system: OVCAR-4
[19] = test system: SK-OV-3
[20] = test system: TK-10
[21] = test system: UO-31
[22] = test system: DU-145
[23] = test system: NSCLC (Non-small Cell Lung Cancer) cell lines; conditions: for GI50 / CC50: Homo sapiens
[24] = test system: Ovarian Cancer cell lines; conditions: for GI50 / CC50: Homo sapiens
[25] = test system: Breast Cancer cell lines
[26] = Homo sapiens, read-out: LC50 (the source's name)
[27] = read-out: GI50, values range inside panel
[28] = read-out: LC50, values range inside panel

**Q.** `O=C(COc1ccc(Cl)cc1/C=c1\sc2ncnn2c1=O)Nc1ccc(Cl)cc1` [Compound 2h, (Z)-2-(4-Chloro-2-((6-oxothiazolo[3,2-b][1,2,4]triazol-5(6H)-ylidene)methyl)phenoxy)-N-(4-chlorophenyl)acetamide] was tested. Which IC50 [1] did it give?
**A.** 29 µM

**Q.** And the GI50 ([2]; Homo sapiens)?
**A.** 15.5 µM

**Q.** What about the CC50 [2, 26] of the same compound?
**A.** 60.2 µM

**Q.** And the TGI [2]?
**A.** 30.90 µM

**Q.** And the GI50 ([3]; Homo sapiens)?
**A.** 3.09 µM

**Q.** And the LC50 (50% lethal concentration) ([3]; Homo sapiens)?
**A.** 44.7 µM

**Q.** And the TGI [3]?
**A.** 17.37 µM

**Q.** What about the GI50 ([4]; Homo sapiens) of the same compound?
**A.** 3.8 µM

**Q.** And the CC50 [4, 26]?
**A.** 38 µM

**Q.** And the TGI [4]?
**A.** 14.45 µM

**Q.** And the TGI ([5]; HL-60 (TB), Leukemia)?
**A.** 9.54 µM

**Q.** And the GI50 ([5]; Homo sapiens, HL-60)?
**A.** 2.69 µM

**Q.** And the CC50 ([5]; Homo sapiens, HL-60, read-out: LC50)?
**A.** 37.1 µM

**Q.** And the GI50 ([6]; Homo sapiens, MOLT-4)?
**A.** 1.9 µM

**Q.** And the CC50 ([6]; Homo sapiens, MOLT-4, read-out: LC50)?
**A.** 22.9 µM

**Q.** What about the TGI ([6]; MOLT-4, Leukemia) of the same compound?
**A.** 5.01 µM

**Q.** What about the GI50 ([7]; Homo sapiens, RPMI-8226) of the same compound?
**A.** 1.69 µM

**Q.** What about the CC50 ([7]; Homo sapiens, RPMI-8226, read-out: LC50) of the same compound?
**A.** 26.9 µM

**Q.** What about the TGI ([7]; RPMI-8226, Leukemia) of the same compound?
**A.** 4.89 µM

**Q.** And the GI50 ([8]; Homo sapiens)?
**A.** 1.38 µM

**Q.** And the CC50 ([8]; Homo sapiens, read-out: LC50)?
**A.** 17.4 µM

**Q.** What about the TGI ([8]; Leukemia) of the same compound?
**A.** 4.07 µM

**Q.** What about the TGI ([9]; HOP-92, NSCLC) of the same compound?
**A.** 11.74 µM

**Q.** And the GI50 ([9]; Homo sapiens, HOP-92)?
**A.** 2.29 µM

**Q.** What about the CC50 ([9]; Homo sapiens, HOP-92, read-out: LC50) of the same compound?
**A.** 34.7 µM

**Q.** What about the GI50 ([10]; Homo sapiens, NCI-H522) of the same compound?
**A.** 3.16 µM

**Q.** What about the CC50 ([10]; Homo sapiens, NCI-H522, read-out: LC50) of the same compound?
**A.** 38 µM

**Q.** What about the TGI ([10]; NCI-H522, NSCLC) of the same compound?
**A.** 9.99 µM

**Q.** What about the GI50 ([11]; Homo sapiens, U-251) of the same compound?
**A.** 4.07 µM

**Q.** And the CC50 ([11]; Homo sapiens, U-251, read-out: LC50)?
**A.** 38 µM

**Q.** And the TGI ([11]; U251, CNS Cancer)?
**A.** 14.45 µM

**Q.** And the GI50 ([12]; Homo sapiens, Malme-3M)?
**A.** 7.94 µM

**Q.** What about the CC50 ([12]; Homo sapiens, Malme-3M, read-out: LC50) of the same compound?
**A.** 45.7 µM

**Q.** What about the TGI ([12]; MALME-3M, Melanoma) of the same compound?
**A.** 20.89 µM

**Q.** What about the GI50 ([13]; Homo sapiens, SK-MEL-2) of the same compound?
**A.** 3.98 µM

**Q.** And the CC50 ([13]; Homo sapiens, SK-MEL-2, read-out: LC50)?
**A.** 38.9 µM

**Q.** What about the TGI ([13]; SK-MEL-2, Melanoma) of the same compound?
**A.** 13.80 µM

**Q.** What about the GI50 ([14]; Homo sapiens, SK-MEL-28) of the same compound?
**A.** 6.16 µM

**Q.** And the CC50 ([14]; Homo sapiens, SK-MEL-28, read-out: LC50)?
**A.** 51.3 µM

**Q.** And the TGI ([14]; SK-MEL-28, Melanoma)?
**A.** 20.41 µM

**Q.** And the GI50 ([15]; Homo sapiens, UACC-257)?
**A.** 3.38 µM

**Q.** And the CC50 ([15]; Homo sapiens, UACC-257, read-out: LC50)?
**A.** 38.9 µM

**Q.** What about the TGI ([15]; UACC-257, Melanoma) of the same compound?
**A.** 15.13 µM

**Q.** What about the GI50 ([16]; Homo sapiens, UACC-62) of the same compound?
**A.** 2.69 µM

**Q.** And the CC50 ([16]; Homo sapiens, UACC-62, read-out: LC50)?
**A.** 38 µM

**Q.** And the TGI ([16]; UACC-62, Melanoma)?
**A.** 14.79 µM

**Q.** And the GI50 ([17]; Homo sapiens, OVCAR-3)?
**A.** 2.18 µM

**Q.** What about the CC50 ([17]; Homo sapiens, OVCAR-3, read-out: LC50) of the same compound?
**A.** 19.5 µM

**Q.** And the TGI ([17]; OVCAR-3, Ovarian Cancer)?
**A.** 5.62 µM

**Q.** And the GI50 ([18]; Homo sapiens, OVCAR-4)?
**A.** 8.91 µM

**Q.** And the CC50 ([18]; Homo sapiens, OVCAR-4, read-out: LC50)?
**A.** 97.7 µM

**Q.** And the TGI ([18]; OVCAR-4, Ovarian Cancer)?
**A.** 30.90 µM

**Q.** What about the GI50 ([19]; Homo sapiens, SK-OV-3) of the same compound?
**A.** 15.5 µM

**Q.** And the CC50 ([19]; Homo sapiens, SK-OV-3, read-out: LC50)?
**A.** 53.7 µM

**Q.** And the TGI ([19]; SK-OV-3, Ovarian Cancer)?
**A.** 28.84 µM

**Q.** And the GI50 ([20]; Homo sapiens, TK-10)?
**A.** 7.58 µM

**Q.** What about the CC50 ([20]; Homo sapiens, TK-10, read-out: LC50) of the same compound?
**A.** 35.5 µM

**Q.** And the TGI ([20]; TK-10, Renal Cancer)?
**A.** 20.41 µM

**Q.** And the GI50 ([21]; Homo sapiens, UO-31)?
**A.** 2.29 µM

**Q.** What about the CC50 ([21]; Homo sapiens, UO-31, read-out: LC50) of the same compound?
**A.** 44.7 µM

**Q.** What about the TGI ([21]; UO-31, Renal Cancer) of the same compound?
**A.** 17.37 µM

**Q.** What about the TGI ([22]; DU-145, Prostate Cancer) of the same compound?
**A.** 4.46 µM

**Q.** And the GI50 ([22]; Homo sapiens, DU-145)?
**A.** 1.54 µM

**Q.** And the CC50 ([22]; Homo sapiens, DU-145, read-out: LC50)?
**A.** 15.8 µM

**Q.** What about the GI50 ([23]; read-out: GI50, panel MG_MID) of the same compound?
**A.** 6.98 µM

**Q.** What about the GI50 [23, 27] of the same compound?
**A.** 2.29 to 15.5 µM

**Q.** And the CC50 ([23]; read-out: LC50, panel MG_MID)?
**A.** 44 µM

**Q.** What about the CC50 [23, 28] of the same compound?
**A.** 31.6 to 60.2 µM

**Q.** What about the “TGI, panel MG_MID” value ([23]; NSCLC subpanel) of the same compound?
**A.** 18.22 µM

**Q.** And the “TGI, values range inside panel” value ([23]; NSCLC subpanel)?
**A.** 9.99 to 30.90 µM

**Q.** What about the GI50 ([24]; read-out: GI50, panel MG_MID) of the same compound?
**A.** 8.05 µM

**Q.** What about the GI50 [24, 27] of the same compound?
**A.** 2.11 to 15.5 µM

**Q.** And the CC50 ([24]; read-out: LC50, panel MG_MID)?
**A.** 52.1 µM

**Q.** What about the CC50 [24, 28] of the same compound?
**A.** 19.5 to 97.7 µM

**Q.** And the “TGI, panel MG_MID” value ([24]; Ovarian Cancer subpanel)?
**A.** 20.34 µM

**Q.** And the “TGI, values range inside panel” value ([24]; Ovarian Cancer subpanel)?
**A.** 5.62 to 30.90 µM

**Q.** And the “TGI, panel MG_MID” value ([25]; Breast Cancer subpanel)?
**A.** 15.61 µM

**Q.** And the “TGI, values range inside panel” value ([25]; Breast Cancer subpanel)?
**A.** 4.07 to 41.68 µM

**Q.** What about the GI50 ([25]; Homo sapiens, read-out: GI50, panel MG_MID) of the same compound?
**A.** 4.48 µM

**Q.** And the CC50 ([25]; Homo sapiens, read-out: LC50, panel MG_MID)?
**A.** 46.1 µM

**Q.** What about the GI50 ([25]; read-out: GI50, values range inside panel, Breast Cancer subpanel) of the same compound?
**A.** 0.01 to 15.5 µM
